Several values for one entry are separate records, joined by “and”; a condition that tells them apart may be missing. Identical values can stand only once.
How the values were obtained:
[1] = test system: ISRE in THP-1 cells (TLR9 agonist ODN 2216); experiment: THP-1 ISRE luciferase reporter, ODN 2216 stimulation; format: cell-based, human; conditions: ODN 2216 1 µM, 4 μM compound, 16 h
Procedure: THP-1 in vitro experiments
THP-1-DualTM cells (InvivoGen), derived from a human monocytic cell line, isolated from a patient with acute monocytic leukaemia, were cultured as per manufacturer’s guidance. Cells were seeded at 1x10^6 cells/mL in RPMI1640 media containing 10% fetal bovine serum (FBS), 1% penicillin-streptomycin (PS) (Gibco Laboratories) with DMSO (0.1%) (control) or in media containing JMS-175- […]
ng/mL) (Merck Life Science), ODN 2216 (1 µM) (Miltenyi Biotec), or Poly:IC (1 µg/mL) (InvivoGen).
Tofacitinib (Cambridge Biosciences) at 0.4 µM was used for comparison against a known JAK inhibitor.
Cells were centrifuged at 300 g for 5 minutes. Supernatant was removed and subjected to simultaneous study of the NF -κB pathway, by monitoring the activity of secreted alkaline phosphatase reporter (SEAP), and the IRF pathway, by assessing the activity o f a secreted Lucia luciferase using QUANTI - Blue ™ Solution and QUANTI -Luc™ 4 Lucia/Gaussia (InvivoGen), respectively, as per manufacturer’s instructions. Pelleted cells were used for FACS analysis using IFNα/β R1 APC-conjugated antibody or isotype control (Biotechne, FAB245A and IC002A), or unstained staining procedure with and without Zombie GreenTM (Biolegend). Samples were analysed using CytoFlex LX (Beckman) (50,000 live cells per condition). Median fluorescence intensity for APC channel gated on single cell live cells was analysed and compared as a percentage to control (no stimulation condition). […]

[2] = test system: trypsin; experiment: Trypsin IQF diubiquitin selectivity assay; format: biochemical; conditions: for Normalised V0: Trypsin; for TRYPSIN, normalised activity (Ext. 1a): two replicate columns
Procedure: BRISC DUB activity was measured at room temperature using 1 nM BRISC and 500 nM IQF diubiquitin K63 substrate (LifeSensors, DU6303) in the presence of DMSO and compounds at 10 μM (final concentrations). Assays were performed in 384-well black flat-bottom low-flange plates (Corning, 35373) in buffer containing 50 mM HEPES–NaOH pH 7.0, 100 mM NaCl, 1 mg ml^−1 BSA, 1 mM DTT and 0.03% v/v Brij-35. Then, 10 μl of twofold concentrated enzyme stock was dispensed, followed by transfer of 200 nl of compounds (1 mM stock) using a 384-pin tool and a 15-min incubation at room temperature. Then, 10 μl of twofold concentrated substrate stock was added and the reaction was monitored by measuring fluorescence intensity (excitation, 540 nm; emission, 580 nm) after 20-min incubation at room temperature and ~50% of substrate was consumed. Orthogonal assays for verification of H20 and P12 hit compounds using USP2 (100 nM) and trypsin (125 nM) were performed in identical conditions.
IQF assays were performed in DUB reaction buffer containing 50 mM HEPES–NaOH pH 7.0, 100 mM NaCl, 0.1 mg ml^−1 BSA, 1 mM DTT and 0.03% v/v Brij-35. […] The final concentration of BRISC WT, all BRISC mutants, HsBRISCΔLoop, MmBRISC and DrBRISCΔNΔC was 1 nM. Other enzymes were tested at the following concentrations: 5 nM ARISC (FL), 10 nM CfBRISCΔNΔC, 250 nM AMSH* (ref. [43]), 500 nM USP2 and 1 μM trypsin (Sigma, 9002-07-7). For Michaelis–Menten experiments, 1 nM BRISC with 0–1 μM IQF K63-linked diubiquitin substrate was used. Michaelis–Menten analyses and Lineweaver–Burk plots were calculated using GraphPad Prism (version 9.0).
To assess enzymatic activity, BRISC complexes were diluted to concentrations between 1 nM and 50 nM. […] Then, 20-μl enzyme reactions were carried out in 384-well black flat-bottom low-flange plates (Corning, 35373). DUB activity was measured using IQF K63-linked diubiquitin (LifeSensors, DU6303) at 50 nM. Cleaved diubiquitin was monitored by measuring fluorescence intensity (excitation, 544 nm; emission, 575 nm; dichroic mirror, 560 nm). Fluorescence intensity was measured every minute for 30 min at 30 °C. Fluorescence intensity units were plotted against time to generate a linear reaction progress curve, where the initial velocity (V0) corresponds to the gradient of the curve (typically achieved within 15 min). IC50 values were calculated using the GraphPad Prism (version 9.0) built-in dose–response equation for inhibitor concentration versus response (variable slope).

[3] = biological target: T1, BRISC (FL) (Homo sapiens, UniProt P46736+Q15018+Q9NXR7); experiment: Native MS of BRISC with inhibitor; conditions: 10 μM BRISC, 1 mM inhibitor
T1 construct: full-length BRISC (FL), ARISC (FL); made in house; host or cells: Spodoptera frugiperda Sf9 insect cells (MultiBac)
Procedure: Samples were buffer-exchanged into 500 mM ammonium acetate using Zeba Spin (7-kDa molecular weight cutoff) desalting columns (Thermo Fisher Scientific). Samples were analyzed by nanoelectrospray ionization MS using a quadrupole orbitrap MS (Q-Exactive UHMR, Thermo Fisher Scientific) using gold–palladium-coated nanospray tips prepared in-house. The MS instrument was operated in positive ion mode using a capillary voltage of 1.5 kV, capillary temperature of 250 °C and S-lens radiofrequency of 200 V. In-source trapping was used with a desolvation voltage of −200 V for 4 μs. Extended trapping was not used. The quadrupole mass range was 2,000–15,000 m/z. Nitrogen gas was used in the higher-energy collisional dissociation cell with a trap gas pressure setting of 5. Orbitrap resolution was 6,250 and detector m/z optimization was low. Five microscans were averaged and an automatic gain control target of 2 × 10^5 was used. Mass calibration was performed by a separate injection of sodium iodide at a concentration of 2 μg μl^−1. Data processing was performed using QualBrowser (version 4.2.28.14) and deconvoluted using UniDec[82].

[4] = test system: ISG expression in MCF10A Cas9 cells expressing BRCC45 R137A; experiment: MCF10A BRCC45 R137A ISG expression (RT–qPCR); format: cell-based, human; conditions: hIFNα2 75 ng/ml, 2.5 μM, 4 h

## Cn1cc(NC(=O)c2c(Cl)cccc2Cl)c(C(=O)NC2CCN(C(=O)c3c(Cl)cccc3Cl)CC2)n1 [AP-5-145]
[1]
  ISRE luciferase signal in THP-1 supernatant: 228.667 and 315.667 and 335.333

## O=C(NC1C2CNCC21)c1nn(C(=O)c2c(Cl)cccc2Cl)cc1NC(=O)c1c(Cl)cccc1Cl (stereo not shown) [FX-171-C]
[2]; Fig. 1g, FX-171-C 0.02 μM
  Normalised V0: 0.9754 and 1.082 and 1.037
[2]; Fig. 1g, FX-171-C 0.0399999 μM
  Normalised V0: 0.8958 and 1.072 and 0.9551
[2]; Fig. 1g, FX-171-C 0.0599997 μM
  Normalised V0: 0.994 and 1.174 and 1.005
[2]; Fig. 1g, FX-171-C 0.0799994 μM
  Normalised V0: 0.9908 and 1.085 and 0.9856
[2]; Fig. 1g, FX-171-C 0.119998 μM
  Normalised V0: 0.909 and 1.102 and 1.137
[2]; Fig. 1g, FX-171-C 0.199996 μM
  Normalised V0: 1.048 and 1.0751 and 0.9569
[2]; Fig. 1g, FX-171-C 0.499975 μM
  Normalised V0: 0.9677 and 1.122 and 0.9918
[2]; Fig. 1g, FX-171-C 0.799936 μM
  Normalised V0: 0.9633 and 1.093 and 0.8806
[2]; Fig. 1g, FX-171-C 1.25984 μM
  Normalised V0: 1.083 and 0.9949 and 1.069
[2]; Fig. 1g, FX-171-C 1.9996 μM
  Normalised V0: 1.032 and 1.136 and 0.9684
[2]; Fig. 1g, FX-171-C 3.159 μM
  Normalised V0: 0.959 and 1.075 and 1.119
[2]; Fig. 1g, FX-171-C 5.19739 μM
  Normalised V0: 1.013 and 1.118 and 1.082
[2]; Fig. 1g, FX-171-C 7.99364 μM
  Normalised V0: 1.036 and 1.142 and 1.053
[2]; Fig. 1g, FX-171-C 12.7839 μM
  Normalised V0: 1.107 and 1.095 and 0.9652
[2]; Fig. 1g, FX-171-C 19.96 μM
  Normalised V0: 0.9382 and 0.9859 and 0.9654
[2]; Fig. 1g, FX-171-C 31.4999 μM
  Normalised V0: 0.9264 and 1.08 and 0.8456
[2]; Fig. 1g, FX-171-C 50.147 μM
  Normalised V0: 0.8123 and 0.9453 and 0.8818
[2]; Fig. 1g, FX-171-C 79.7601 μM
  Normalised V0: 0.7444 and 0.9554 and 0.7546
[2]; Fig. 1g, FX-171-C 125.99 μM
  Normalised V0: 0.6817 and 0.8207 and 0.6739
[2]; Fig. 1g, FX-171-C 199.922 μM
  Normalised V0: 0.4322 and 0.4467 and 0.4966
[3]
  BRISC dimers detected by native MS: BRISC dimers with 4:4:4:4 stoichiometry were detected
[1]
  ISRE luciferase signal in THP-1 supernatant: 149.667 and 263.333 and 287.667
[4]
  ISG expression (ISG15, IFIT1, IFIT2, IFITM1, CXCL10): a reduction in ISG expression was not observed

## O=C(NC1CCNCC1)c1nn(C(=O)c2c(Cl)cccc2Cl)cc1NC(=O)c1c(Cl)cccc1Cl [JMS-175-2]
[2]; Fig. 1e, JMS-175-2 0.02 μM
  Normalised V0: 1.129 and 1.522 and 0.9592
[2]; Fig. 1e, JMS-175-2 0.0399999 μM
  Normalised V0: 1.059 and 1.128 and 0.891
[2]; Fig. 1e, JMS-175-2 0.0599997 μM
  Normalised V0: 1.053 and 1.443 and 1.028
[2]; Fig. 1e, JMS-175-2 0.0799994 μM
  Normalised V0: 1.079 and 1.241 and 1.027
[2]; Fig. 1e, JMS-175-2 0.119998 μM
  Normalised V0: 1.132 and 1.572 and 1.058
[2]; Fig. 1e, JMS-175-2 0.199996 μM
  Normalised V0: 1.063 and 1.165 and 0.9014
[2]; Fig. 1e, JMS-175-2 0.499975 μM
  Normalised V0: 1.046 and 1.263 and 0.9518
[2]; Fig. 1e, JMS-175-2 0.799936 μM
  Normalised V0: 1.084 and 1.3 and 1.031
[2]; Fig. 1e, JMS-175-2 1.25984 μM
  Normalised V0: 1.117 and 1.247 and 0.9792
[2]; Fig. 1e, JMS-175-2 1.9996 μM
  Normalised V0: 1.2322 and 1.34 and 0.9526
[2]; Fig. 1e, JMS-175-2 3.159 μM
  Normalised V0: 1.104 and 1.275 and 0.8695
[2]; Fig. 1e, JMS-175-2 5.19739 μM
  Normalised V0: 1.019 and 1.261 and 1.016
[2]; Fig. 1e, JMS-175-2 7.99364 μM
  Normalised V0: 1.1 and 1.362 and 0.8881
[2]; Fig. 1e, JMS-175-2 12.7839 μM
  Normalised V0: 1.055 and 1.3161 and 0.9778
[2]; Fig. 1e, JMS-175-2 19.96 μM
  Normalised V0: 1.0605 and 1.284 and 0.9014
[2]; Fig. 1e, JMS-175-2 31.4999 μM
  Normalised V0: 1.012 and 1.285 and 0.8918
[2]; Fig. 1e, JMS-175-2 50.147 μM
  Normalised V0: 0.965 and 1.142 and 0.7769
[2]; Fig. 1e, JMS-175-2 79.7601 μM
  Normalised V0: 0.9096 and 1.115 and 0.8428
[2]; Fig. 1e, JMS-175-2 125.99 μM
  Normalised V0: 0.8068 and 0.9447 and 0.6574
[2]; Fig. 1e, JMS-175-2 199.922 μM
  Normalised V0: 0.6351 and 0.815 and 0.623
[2]; log [compound (μM)] 0.1938, listed as H20
  TRYPSIN, normalised activity (Ext. 1a): 1.0307 and 1.0157
[2]; log [compound (μM)] 0.4949, listed as H20
  TRYPSIN, normalised activity (Ext. 1a): 1.0959 and 1.0924
[2]; log [compound (μM)] 0.7959, listed as H20
  TRYPSIN, normalised activity (Ext. 1a): 1.0739 and 0.9776
[2]; log [compound (μM)] 1.0969, listed as H20
  TRYPSIN, normalised activity (Ext. 1a): 1.0282 and 0.9851
[2]; log [compound (μM)] 1.3979, listed as H20
  TRYPSIN, normalised activity (Ext. 1a): 0.9308 and 0.8423
[2]; log [compound (μM)] 1.6990, listed as H20
  TRYPSIN, normalised activity (Ext. 1a): 0.8444 and 0.8335
[2]; log [compound (μM)] 2.0000, listed as H20
  TRYPSIN, normalised activity (Ext. 1a): 0.8160 and 0.6662
[2]; log [compound (μM)] 2.3010, listed as H20
  TRYPSIN, normalised activity (Ext. 1a): 0.6941 and 0.5461
[2]; log [compound (μM)] -0.1072, listed as H20
  TRYPSIN, normalised activity (Ext. 1a): 1.2914 and 1.0218
[2]; log [compound (μM)] -0.4082, listed as H20
  TRYPSIN, normalised activity (Ext. 1a): 1.0017 and 0.9864
[2]; log [compound (μM)] -0.7093, listed as H20
  TRYPSIN, normalised activity (Ext. 1a): 0.9551 and 0.9457
[2]; log [compound (μM)] -1.7100, normalisation point
  TRYPSIN, normalised activity (Ext. 1a): 1.0000
[3]
  BRISC dimers detected by native MS: BRISC dimers with 4:4:4:4 stoichiometry were detected
[4]
  ISG expression (ISG15, IFIT1, IFIT2, IFITM1, CXCL10): a reduction in ISG expression was not observed
